Measurements published in a melting point compilation (Tetko et al.; mined from patent text by program, amines drawn as free bases though some values may be those of a salt).

SMILES | melting point
NC(=O)/C=C/c1cc([N+](=O)[O-])ccc1Cl | 208 to 210 °C
CC(C)(C)c1nc(C(N)=S)nc(C(C)(C)C)c1O | 169 to 171 °C
Fc1ccc(OCCCCCCN2CCN(c3nccs3)CC2)cc1 | 58 to 60 °C
Nc1c(C(=O)c2ccncc2)[nH]c2cc(Cl)ccc12 | 266 to 267 °C
C#CC(C)Oc1cc(Cc2cnc(N)nc2N)cc(OC)c1OC (centres undefined) | 153 to 155 °C
FC(F)(F)c1cccc(-c2cc(C(F)(F)F)n3ncc(I)c3n2)c1 | 142 °C
CCN1CCCC1CNC(=O)c1cc(NS(C)(=O)=O)c(C)cc1OC (centres undefined) | 132 to 133 °C
CC(C)C(=O)Nc1ccc(Br)c(C(F)(F)F)c1 | 126 to 128 °C
FC(F)(F)c1cc(Cl)c(-c2nc(C(F)(F)F)c[nH]2)c(Cl)c1 | 213 to 215 °C
CCOC(=O)N1CCN(CCNc2ncnc3c2sc2nc(N4CCCC4)c4c(c23)CC(C)(C)OC4)CC1 | 97.8 to 99.1 °C
CCn1cc(C(=O)O)c(=O)c2cc(Cl)c(N3CCCCC3)cc21 | 230 °C
CN1C(=O)[C@H](NC(=O)CCc2ccc(C#N)cc2)N=C(c2ccccc2)c2ccccc21 | 81 to 85 °C
CCCC(=O)Nc1ccc(O)c(C(=O)C=CN(C)C)c1 | 174 °C
O=Cc1csc(N2CCSCC2)n1 | 69 to 71 °C
O=C(N[C@@H]1CN(C2CCCCC2)C[C@H]1O)c1ccc(Cl)cc1 (relative stereo) | 158 to 160 °C
COc1cc(C)cc(OC)c1N(CCC(C)C)C(=O)CNC(=O)OC(C)(C)C | 132 °C
CN(C)S(=O)(=O)c1nnc(N)s1 | 188 to 190 °C
O=C(O)C1=Cc2cc(F)cc(Br)c2OC1C(F)(F)F (centres undefined) | > 300 °C
CCOc1cc2c(=O)cc(C(=O)O)[nH]c2ccc1=O | > 280 °C

SMILES | melting point
Nc1cccc(Nc2cccc(N)n2)n1 | 171 to 173 °C
CC(=O)N1CCN=C1Nc1cccc2c1CCC2 | 180 to 182 °C
CNC1NC(=O)N(C)C(=O)N1N (centres undefined) | 225 to 227 °C
O=c1ccc2c(-n3cnc(Br)c3)nccc2[nH]1 | 278 to 280 °C
CC(C)CC(CS)C(=O)N[C@@H](C)C(=O)N[C@@H](CCCNC(=N)N)C(=O)O (some centres undefined) | 140 to 150 °C
CCCN(CCC)c1ccc(NC(=O)N(C[C@H]2CC[C@H](CN(C(=O)Nc3ccc(N(CCC)CCC)cc3)C3CCCCC3)CC2)C2CCCCC2)cc1 | 147 to 150 °C
O=C1NCN(c2ccccc2)C12CCN(CCCNc1ccc(F)cc1)CC2 | 158 to 162 °C
COCCOCCN1C(=O)C2(COc3cc4c(cc32)OCCO4)c2cc3c(cc21)OCCO3 (centres undefined) | 146 to 148 °C
CCOC1Nc2c(Br)cc(Br)cc2S(=O)(=O)N1 (centres undefined) | 96 to 98 °C
CC1CC(=O)c2c(Cl)c(F)cc3c(=O)c(C(=O)O)cn1c23 (single isomer, unassigned; (-)) | 294 to 296 °C
COC(CNC(=O)C=CC(=O)O)OC | 91 to 92 °C
COc1cccc(F)c1CCl | 87 to 89 °C
CC(C)CC1N=C(c2ccccc2)c2cc(Cl)ccc2N=C1NN (centres undefined) | 165 to 168 °C
CNc1cc(F)ccc1C(=O)CS(C)=O (centres undefined) | 129 to 134 °C
Cc1c(-c2cncnc2)ssc1=S | 184 °C
CN(C)c1noc(-c2ccc3c(c2)c2cc(-c4ccc(Cl)cc4Cl)c(=O)n(C)c2n3C)n1 | 320 to 324 °C
Cc1cc(C)nc(N(CCN(C)C)C(N)=O)c1 | 88 to 89 °C
CNc1c(OC)cc(Cc2cnc(N)nc2N)cc1OC | 204 °C

Continued, values first:

melting point | SMILES
166 to 168 °C | CC(C)[C@H](NC(=O)OCc1ccccn1)C(=O)N[C@@H](Cc1ccccc1)[C@H](O)[C@H](O)[C@H](Cc1ccccc1)NC(=O)OCc1cccnc1
55 to 56 °C | CS(=O)(=O)O[C@@H](COC(c1ccccc1)(c1ccccc1)c1ccccc1)C[C@@H]1c2ccccc2Oc2ccc(F)cc2[C@H]1N=[N+]=[N-]
191 to 193 °C | CN(C1CCCCC1)S(=O)(=O)c1ccc(Cn2cnc3ccccc32)cc1
178 to 180 °C | COc1ccccc1COc1ccc(S(=O)(=O)c2ccc(C)nc2Nc2ccc(Cl)cc2C#N)cc1
120 to 121 °C | O=C(NS(=O)(=O)NCCc1ccccc1)OCc1ccccc1
205 to 206 °C | COc1ccc(-c2ccccc2)c2sc(-c3ncc[nH]3)nc12
147 to 148 °C | N#Cc1ccc(-c2ccc(Br)cc2)cc1
122 °C | O=S1CCC(c2ccccc2)(c2ccccc2)CC1
110 to 113 °C | CC(Cc1ccc(OCc2cccc(C(F)(F)F)c2)cc1)NC(=O)CC(c1ccccc1)c1ccccc1 (centres undefined)
160 to 161 °C | Cc1ccc2c(c1)C(C(=O)Nc1c(C)cccc1Cl)c1ccccc1CO2 (centres undefined)
123 to 126 °C | Cc1cc(C(=O)C=C(c2cc(Cl)cc(Cl)c2)C(F)(F)F)ccc1C(=O)O
171 to 174 °C | O=C(NC1CCC1)c1ccc(-c2ccc3nnn(Cc4ccc5ncccc5c4)c3n2)cc1F
196 to 197 °C | Cc1ccc(-c2ccc3c(c2)C=C(C(=O)Nc2ccc(CN4CCCCC4)cc2)CO3)cc1
251 to 252 °C | O=C(N[C@H](Cc1ccc(C(F)(F)F)cc1)[C@@H](O)c1cccc2ccccc12)c1ccc2ccccc2c1 (racemic)
200 to 201 °C | O=C(OCc1ccccc1)C1N2C(=O)C(NC(c3ccccc3)(c3ccccc3)c3ccccc3)C2SC12CCN(c1ccccc1)CC2 (centres undefined)
190 to 193 °C | CC(C)(C)c1ccc(Oc2coc(C(=O)O)cc2=O)cc1

melting point | SMILES
248 to 251 °C | O=C1CCc2cc(NCC(=O)N3CCC(Oc4ccc(Cl)cc4)CC3)ccc2N1
223 to 228 °C | COc1ccc(N2C(=O)N(c3cccc(C#N)c3)c3nc(Nc4ccccc4)ncc3C2C)c(F)c1 (centres undefined)
198 to 199 °C | CCCCCCCNC(=O)Nc1ccccc1C(=O)NC1CCN(C2c3ccccc3COc3ccc(Br)cc32)CC1 (centres undefined)
185 to 187 °C | O=C(O)CCCCCc1c(-c2cccnc2)[nH]c2ccc(O)cc12
99 to 100 °C | CCCN(CC)C1(c2ccccc2)c2ccccc2OC1[N+](=O)[O-] (centres undefined)
104 to 106 °C | CCOC(=O)c1nccn1Cc1ccccc1N
217 °C | Cn1c(C(=O)O)cc2c(OCc3ccccc3)cccc21
195 to 197 °C | COCc1nc2c(N)nc3cc(OCc4ccccc4)ccc3c2n1CCc1ccccc1
46 to 47 °C | Nc1c(Cl)cc(C(O)CNCCCCCC(=O)OCCOc2ccccc2)cc1Cl (centres undefined)
168 °C | COC(=O)N(C(=O)NN=C1c2ccc(Cl)cc2CC1(O)C(=O)OC)c1ccc(OC(F)(F)F)cc1 (centres undefined)
210 to 214 °C | CCc1cc(-c2ccc(-c3cc(CCC(=O)NCc4cccnc4)[nH]n3)cc2)ccc1O
176 to 177 °C | CC1(C)Oc2ccc(S(=O)(=O)C(F)(F)C(F)(F)C(F)(F)F)cc2[C@@H](N)[C@@H]1O (relative stereo)
94 °C | COc1ccccc1C(=O)c1cccc([N+](=O)[O-])c1
121 °C | CC(=O)OCOC(=O)c1oc(-c2ccccc2)cc(=O)c1Br
182 to 188 °C | O=C(N1CCc2cc(O)c(O)cc2C(c2ccccc2)C1)C(F)(F)F (centres undefined)
211 to 214 °C | N#Cc1ccc(-c2sc(N3C(=O)c4ccccc4C3=O)c(C(=O)c3ccc(Cl)cc3)c2CBr)cc1
